Assays:
[1] = molecular target: DGKζ (Homo sapiens (Human), UniProt Q13574); test: Biochemical DGK IC50 assay (ADP-Glo, lipid micelle substrate), DGKζ; details: full length DGKζ 0.5 nM, ATP 140 μM, DAG 80 μM
In short: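 ADP-Glo luminescence measured ADP made in a 1 h room-temperature reaction. The enzyme was Sf9-expressed, purified full-length human DGKζ, and the substrate was DAG/PS micelles. Assay buffer held 50 mM HEPES, 10 mM MgCl2, 0.01 mM CaCl2, 0.1 mM Na3VO4 and 0.01% BSA. IC50 was derived from activity inhibition over a compound concentration series.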

[2] = molecular target: DGKα (Homo sapiens (Human), UniProt P23743); test: Biochemical DGK IC50 assay (ADP-Glo, lipid micelle substrate), DGKα; details: full length DGKα […], ATP 140 μM, DAG 80 μM; also: full length DGKα 7.5 nM
DGKα, sequence (P23743 whole entry): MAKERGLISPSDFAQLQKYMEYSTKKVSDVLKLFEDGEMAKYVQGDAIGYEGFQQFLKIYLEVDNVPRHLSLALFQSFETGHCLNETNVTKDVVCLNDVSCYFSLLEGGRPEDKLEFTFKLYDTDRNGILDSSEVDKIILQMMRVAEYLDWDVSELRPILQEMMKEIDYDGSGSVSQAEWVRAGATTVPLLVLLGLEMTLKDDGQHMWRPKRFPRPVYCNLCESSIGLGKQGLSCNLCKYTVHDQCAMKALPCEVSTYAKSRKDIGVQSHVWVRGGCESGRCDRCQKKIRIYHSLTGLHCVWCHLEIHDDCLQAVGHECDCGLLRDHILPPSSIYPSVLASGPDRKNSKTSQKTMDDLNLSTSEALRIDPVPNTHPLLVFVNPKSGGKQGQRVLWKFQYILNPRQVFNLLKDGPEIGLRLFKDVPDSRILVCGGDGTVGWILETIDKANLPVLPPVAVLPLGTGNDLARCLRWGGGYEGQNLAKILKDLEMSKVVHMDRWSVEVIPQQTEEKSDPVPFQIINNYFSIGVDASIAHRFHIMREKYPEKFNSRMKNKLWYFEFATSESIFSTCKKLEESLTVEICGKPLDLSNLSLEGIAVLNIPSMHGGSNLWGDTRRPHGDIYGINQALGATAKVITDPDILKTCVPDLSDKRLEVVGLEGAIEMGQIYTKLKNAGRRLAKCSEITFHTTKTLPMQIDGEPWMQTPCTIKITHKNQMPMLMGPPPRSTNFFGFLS
In short: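 Luminescent ADP-Glo detection followed a 1 h room-temperature reaction of full-length DGKα on DAG/PS micelles, in HEPES buffer with 10 mM MgCl2, 0.01 mM CaCl2, 0.1 mM Na3VO4, BSA and Tween-20. IC50 derived from inhibition across increasing compound concentrations.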

DGKζ, sequence (Q13574 other isoform, or with tags, fused parts or gaps): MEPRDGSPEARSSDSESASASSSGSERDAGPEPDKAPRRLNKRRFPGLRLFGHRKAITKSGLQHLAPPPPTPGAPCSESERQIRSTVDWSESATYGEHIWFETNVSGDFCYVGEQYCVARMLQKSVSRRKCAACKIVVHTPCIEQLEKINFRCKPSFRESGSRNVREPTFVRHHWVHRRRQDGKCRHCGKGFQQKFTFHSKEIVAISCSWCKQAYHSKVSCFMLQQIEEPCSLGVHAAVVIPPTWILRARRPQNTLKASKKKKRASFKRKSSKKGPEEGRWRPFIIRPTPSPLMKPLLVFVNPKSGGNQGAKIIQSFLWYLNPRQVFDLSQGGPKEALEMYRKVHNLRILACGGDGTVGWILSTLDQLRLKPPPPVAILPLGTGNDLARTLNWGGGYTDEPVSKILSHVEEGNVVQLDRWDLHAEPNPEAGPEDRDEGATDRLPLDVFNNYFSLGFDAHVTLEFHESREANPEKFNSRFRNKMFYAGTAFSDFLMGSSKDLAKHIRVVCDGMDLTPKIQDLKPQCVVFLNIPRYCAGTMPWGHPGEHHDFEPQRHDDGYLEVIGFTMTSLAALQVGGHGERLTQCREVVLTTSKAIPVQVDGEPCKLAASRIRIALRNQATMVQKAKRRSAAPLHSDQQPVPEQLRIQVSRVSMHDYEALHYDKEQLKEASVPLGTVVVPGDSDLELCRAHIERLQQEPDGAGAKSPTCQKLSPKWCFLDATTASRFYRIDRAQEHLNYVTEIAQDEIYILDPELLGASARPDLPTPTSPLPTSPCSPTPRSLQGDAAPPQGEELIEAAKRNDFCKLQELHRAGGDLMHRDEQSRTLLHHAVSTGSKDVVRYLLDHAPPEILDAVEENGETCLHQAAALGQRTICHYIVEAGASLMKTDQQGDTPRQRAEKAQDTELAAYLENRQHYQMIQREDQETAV

Row | SMILES | IC50 [1] | IC50 [2]
1 | CC[C@H]1CN(C(C)c2ccc(C(=O)N3CCC(OC)CC3)cc2)[C@H](CC)CN1c1cc(=O)n(C)c2cn(CC#N)nc12 (single isomer, unassigned) [Compound A194a] | 1450 nM | 291 nM
2 | CC[C@H]1CN(C(C)c2ccc(C(=O)N3CCC(OC)CC3)cc2)[C@H](CC)CN1c1cc(=O)n(C)c2cn(CC#N)nc12 (single isomer, unassigned) [Compound A194b] | 6050 nM | 2530 nM
3 | CC[C@H]1CN(C(C)c2ccc(C(=O)N(C)CCOC)cc2)[C@H](CC)CN1c1cc(=O)n(C)c2cn(CC#N)nc12 (single isomer, unassigned) [Compound A195a] | 1410 nM | 774 nM
4 | CC[C@H]1CN(C(C)c2ccc(C(=O)N(C)CCOC)cc2)[C@H](CC)CN1c1cc(=O)n(C)c2cn(CC#N)nc12 (single isomer, unassigned) [Compound A195b] | > 10000 nM | 4210 nM
5 | CC[C@H]1CN(C(C)c2ccc3c(C)cnn3c2)[C@H](CC)CN1c1cc(=O)n(C)c2cn(CC#N)nc12 (single isomer, unassigned) [Compound A204a] | 31 nM | 467 nM
6 | CC[C@H]1CN(C(C)c2ccc3c(C)cnn3c2)[C@H](CC)CN1c1cc(=O)n(C)c2cn(CC#N)nc12 (single isomer, unassigned) [Compound A204b] | 971 nM | 7300 nM
7 | CC#CCn1cc2c(n1)c(N1C[C@@H](CC)N(C(C)c3cnc4ccccc4n3)C[C@@H]1CC)cc(=O)n2C (single isomer, unassigned) [Compound A206a] | 8300 nM | 480 nM
8 | CC#CCn1cc2c(n1)c(N1C[C@@H](CC)N(C(C)c3cnc4ccccc4n3)C[C@@H]1CC)cc(=O)n2C (single isomer, unassigned) [Compound A206b] | 103 nM | 25 nM
9 | CC[C@H]1CN(C(C)c2cc(F)c(CN3CCS(=O)(=O)CC3)c(F)c2)[C@H](CC)CN1c1cc(=O)n(C)c2cn(CC#N)nc12 (stereo partly drawn) [Compound A5, 2-(7-((2S,5R)-4-(1-(4-((1,1-dioxidothiomorpholino)methyl)-3,5-difluorophenyl)ethyl)-2,5-diethylpiperazin-1-yl)-4-methyl-5-oxo-4,5-dihydro-2H-pyrazolo[4,3-b]pyridin-2-yl)acetonitrile] | 73 nM | 497 nM
10 | CC[C@H]1CN(C(C)c2ccc(C)cc2C)[C@H](CC)CN1c1cc(=O)n(C)c2cn(CC#N)nc12 (stereo partly drawn) [Compound A6, 2-(7-((2S,5R)-4-(1-(2,4-dimethylphenyl)ethyl)-2,5-diethylpiperazin-1-yl)-4-methyl-5-oxo-4,5-dihydro-2H-pyrazolo[4,3-b]pyridin-2-yl)acetonitrile] | 219 nM | 8530 nM
11 | CC[C@H]1CN(C(C)c2ccc(C(F)(F)F)c(C)c2)[C@H](CC)CN1c1cc(=O)n(C)c2cn(CC#N)nc12 (stereo partly drawn) [Compound A8, 2-(7-((2S,5R)-2,5-diethyl-4-(1-(3-methyl-4-(trifluoromethyl)phenyl)ethyl)piperazin-1-yl)-4-methyl-5-oxo-4,5-dihydro-2H-pyrazolo[4,3-b]pyridin-2-yl)acetonitrile] | 229 nM | 1000 nM
12 | CC[C@H]1CN(C(C)c2ccc(OC)c(C)c2)[C@H](CC)CN1c1cc(=O)n(C)c2cn(CC#N)nc12 (stereo partly drawn) [Compound A9, 2-(7-((2S,5R)-2,5-diethyl-4-(1-(4-methoxy-3-methylphenyl)ethyl)piperazin-1-yl)-4-methyl-5-oxo-4,5-dihydro-2H-pyrazolo[4,3-b]pyridin-2-yl)acetonitrile] | 339 nM | 2110 nM
13 | CC[C@H]1CN(C(C)c2ccc(C(C)(F)F)cc2)[C@H](CC)CN1c1cc(=O)n(C)c2cn(CC#N)nc12 (stereo partly drawn) [Compound A10, 2-(7-((2S,5R)-4-(1-(4-(1,1-difluoroethyl)phenyl)ethyl)-2,5-diethylpiperazin-1-yl)-4-methyl-5-oxo-4,5-dihydro-2H-pyrazolo[4,3-b]pyridin-2-yl)acetonitrile] | 104 nM | 162 nM
14 | CC[C@H]1CN(C(C)c2ccc(OCCOC)cc2)[C@H](CC)CN1c1cc(=O)n(C)c2cn(CC#N)nc12 (stereo partly drawn) [Compound A11, 2-(7-((2S,5R)-2,5-diethyl-4-(1-(4-(2-methoxyethoxy)phenyl)ethyl)piperazin-1-yl)-4-methyl-5-obo-4,5-dihydro-2H-pyrazolo[4,3-b]pyridin-2-yl)acetonitrile] | 500 nM | 79 nM
15 | CC[C@H]1CN(C(C)c2ccc(OC)cc2F)[C@H](CC)CN1c1cc(=O)n(C)c2cn(CC#N)nc12 (stereo partly drawn) [Compound A12, 2-(7-((2S,5R)-2,5-diethyl-4-(1-(2-fluoro-4-methoxyphenyl)ethyl)piperazin-1-yl)-4-methyl-5-oxo-4,5-dihydro-2H-pyrazolo[4,3-b]pyridin-2-yl)acetonitrile] | 92 nM | 440 nM
16 | CC[C@H]1CN(C(C)c2ccc(OC)cc2C)[C@H](CC)CN1c1cc(=O)n(C)c2cn(CC#N)nc12 (stereo partly drawn) [Compound A14, 2-(7-((2S,5R)-2,5-diethyl-4-(1-(4-methoxy-2-methylphenyl)ethyl)piperazin-1-yl)-4-methyl-5-oxo-4,5-dihydro-2H-pyrazolo[4,3-b]pyridin-2-yl)acetonitrile] | 63 nM | 8410 nM
17 | CC[C@H]1CN(C(C)c2ccc(OC)c(F)c2)[C@H](CC)CN1c1cc(=O)n(C)c2cn(CC#N)nc12 (stereo partly drawn) [Compound A20, 2-(7-((2S,5R)-2,5-diethyl-4-(1-(3-fluoro-4-methoxyphenyl)ethyl)piperazin-1-yl)-4-methyl-5-oxo-4,5-dihydro-2H-pyrazolo[4,3-b]pyridin-2-yl)acetonitrile] | 312 nM | 378 nM
18 | CC[C@H]1CN(C(C)c2ccc(OC3COC3)cc2F)[C@H](CC)CN1c1cc(=O)n(C)c2cn(CC#N)nc12 (stereo partly drawn) [Compound A22, 2-(7-((2S,5R)-2,5-diethyl-4-(1-(2-fluoro-4-(oxetan-3-yloxy)phenyl)ethyl)piperazin-1-yl)-4-methyl-5-oxo-4,5-dihydro-2H-pyrazolo[4,3-b]pyridin-2-yl)acetonitrile] | 465 nM | 833 nM

Other lines, results leading:

Row | IC50 [1] | IC50 [2] | SMILES
19 | 2690 nM | 1110 nM | CC[C@H]1CN(C(C)c2ccc(CN3CCC(OC)C3)cc2)[C@H](CC)CN1c1cc(=O)n(C)c2cn(CC#N)nc12 (single isomer, unassigned) [Compound A203a]
20 | 7610 nM | 11600 nM | CC[C@H]1CN(C(C)c2ccc(CN3CCC(OC)C3)cc2)[C@H](CC)CN1c1cc(=O)n(C)c2cn(CC#N)nc12 (single isomer, unassigned) [Compound A203b]
21 | 152 nM | 129 nM | CCc1ccc(C(C)N2C[C@H](CC)N(c3cc(=O)n(C)c4cn(CC#N)nc34)C[C@H]2CC)cc1 (stereo partly drawn) [Compound A7, 2-(7-((2S,5R)-2,5-diethyl-4-(1-(4-ethylphenyl)ethyl)piperazin-1-yl)-4-methyl-5-oxo-4,5-dihydro-2H-pyrazolo[4,3-b]pyridin-2-yl)acetonitrile]
22 | 323 nM | 838 nM | CC[C@H]1CN(C(C)c2ccc(OC3CCOC3)cc2F)[C@H](CC)CN1c1cc(=O)n(C)c2cn(CC#N)nc12 (stereo partly drawn) [Compound A13, 2-(7-((2S,5R)-2,5-diethyl-4-(1-(2-fluoro-4-((tetrahydrofuran-3-yl)oxy)phenyl)ethyl)piperazin-1-yl)-4-methyl-5-oxo-4,5-dihydro-2H-pyrazolo[4,3-b]pyridin-2-yl)acetonitrile]
23 | 219 nM | 193 nM | CC[C@H]1CN(C(C)c2ccc(COC3CCOCC3)cc2)[C@H](CC)CN1c1cc(=O)n(C)c2cn(CC#N)nc12 (stereo partly drawn) [Compound A15, 2-(7-((2S,5R)-2,5-diethyl-4-(1-(4-(((tetrahydro-2H-pyran-4-yl)oxy)methyl)phenyl)ethyl)piperazin-1-yl)-4-methyl-5-oxo-4,5-dihydro-2H-pyrazolo[4,3-b]pyridin-2-yl)acetonitrile]
24 | 170 nM | 204 nM | CC[C@H]1CN(C(C)c2ccc(COC3COC3)cc2)[C@H](CC)CN1c1cc(=O)n(C)c2cn(CC#N)nc12 (stereo partly drawn) [Compound A16, 2-(7-((2S,5R)-2,5-diethyl-4-(1-(4-((oxetan-3-yloxy)methyl)phenyl)ethyl)piperazin-1-yl)-4-methyl-5-oxo-4,5-dihydro-2H-pyrazolo[4,3-b]pyridin-2-yl)acetonitrile]
25 | 315 nM | 343 nM | CC[C@H]1CN(C(C)c2ccc(COC3CCOC3)cc2)[C@H](CC)CN1c1cc(=O)n(C)c2cn(CC#N)nc12 (stereo partly drawn) [Compound A17, 2-(7-((2S,5R)-2,5-diethyl-4-(1-(4-(((tetrahydrofuran-3-yl)oxy)methyl)phenyl)ethyl)piperazin-1-yl)-4-methyl-5-oxo-4,5-dihydro-2H-pyrazolo[4,3-b]pyridin-2-yl)acetonitrile]
26 | 97 nM | 249 nM | CC[C@H]1CN(C(C)c2ccc(COCCOC)cc2)[C@H](CC)CN1c1cc(=O)n(C)c2cn(CC#N)nc12 (stereo partly drawn) [Compound A18, 2-(7-((2S,5R)-2,5-diethyl-4-(1-(4-((2-methoxyethoxy)methyl)phenyl)ethyl)piperazin-1-yl)-4-methyl-5-oxo-4,5-dihydro-2H-pyrazolo[4,3-b]pyridin-2-yl)acetonitrile]
27 | 427 nM | 100 nM | CC[C@H]1CN(C(C)c2ccc(OC3(C)COC3)cc2)[C@H](CC)CN1c1cc(=O)n(C)c2cn(CC#N)nc12 (stereo partly drawn) [Compound A24, 2-(7-((2S,5R)-2,5-diethyl-4-(1-(4-((3-methyloxetan-3-yl)oxy)phenyl)ethyl)piperazin-1-yl)-4-methyl-5-oxo-4,5-dihydro-2H-pyrazolo[4,3-b]pyridin-2-yl)acetonitrile]
